# Assay results reported in PMC9340770 (Journal of Medicinal Chemistry, 2022).
# Where two headings read alike, the source gives them in different places.
# Legend:
# [1] = molecular target: CYP3A4 (Homo sapiens, UniProt P08684); assay: biochemical
# [2] = CNS mouse PK study; type: in vivo, female CD-1 mice; conditions: female, CD-1, mouse, CSF / free plasma, read-out: CSF:Cp,u (Kp,uu)
# Text: Table 10 CNS Mouse PK Profile of MRTX0902 (32) ^a | column: mean free plasma concn (Cp,u, nM); mean brain concn (ng/g); mean CSF concn (nM); CSF:Cp,u (Kp,uu)
# [3] = molecular target: T1, HRH1 (Homo sapiens, UniProt P35367); assay: Safetyscan Calcium Flux; type: cell-based
# T1 construct: purchased DiscoverX (Eurofins) Safetyscan Panel
# [4] = molecular target: T2, COX1 (Homo sapiens, UniProt P23219); assay: Safetyscan Enzymatic; type: biochemical; conditions: read-out: RC50 (IC50) COX1 Inhibitor
# T2 construct: purchased DiscoverX (Eurofins)
# [5] = molecular target: T3, ROCK1 (Homo sapiens, UniProt Q13464); assay: Safetyscan Kinases Binding; conditions: read-out: RC50 (IC50) ROCK1 Inhibitor
# T3 construct: purchased DiscoverX (Eurofins)
# [6] = molecular target: T4, MAOA (Homo sapiens, UniProt P21397); assay: Safetyscan Enzymatic; type: biochemical; conditions: read-out: RC50 (IC50) MAOA Inhibitor
# T4 construct: purchased DiscoverX (Eurofins)
# [7] = molecular target: T5, HRH2 (Homo sapiens, UniProt P25021); assay: Safetyscan cAMP; type: cell-based
# T5 construct: purchased DiscoverX (Eurofins) Safetyscan Panel
# [8] = tested on: MIA PaCa-2 tumor mouse xenograft; assay: Antitumor efficacy study in MIA PaCa-2 mouse xenograft; conditions: for tumor growth inhibition (TGI): single agent, 25 days
# [9] = mouse, IV 3 mg/kg
# [10] = molecular target: T6, LCK (Homo sapiens, UniProt P06239); assay: Safetyscan Kinases Binding; conditions: read-out: RC50 (IC50) LCK Inhibitor
# T6 construct: purchased DiscoverX (Eurofins)
# [11] = pKa determination (Sirius T3); type: physicochemical; conditions: for pKa: water/methanol co-solvent mixture
# Description: Sirius T3Dt (Sirius Analytical Instruments Ltd) fitted with combination Ag/AgCl pH electrode was used for the determination of dissociation constants. The pKa and psKa values were calculated by Sirius T3Dt software (Sirius Analytical Instruments Ltd, Version 1.0.12.120). There are two methods available on the Sirius T3 for pKa measurement: potentiometric titration and spectroscopic (UV) titration.
# UV metric method: Pipetted 5 µL of sample stock solution (10 mM in DMSO) and 25 µL fast UV buffer into a sample vial, and 1.5 mL of 80%v/v MeOH was added into the sample vial automatically. Pre - acidified the sample solution with 0.5 M HCl by the instrument automatically, and then titrated three times from low to high pH. Refined the data to get aqu eous pKa value. pH metric method: About 1 mg of sample was weighed into a sample vial. 1.50 mL of 80%v/v MeOH was added into the vial automatically. The sample was solution pre -acidified with 0.5 M HCl by the instrument automatically, and then titrated three times from low to high pH. Refined the data to get aqueous pKa value.
# Sirius T3 software always fits Yasuda -Shedlovsky data linearly, according to the equation.
# • Yi is calculated as psKa + log [H 2O]
# • psKa represents apparent pKa values of compounds measured in water/co -solvent mixtures • [H2O] represents the concentration of H2O in mixtures solution […]
# • ε i represents dielectric constant of water/co-solvent mixture
# Table S3. pKa of MRTX0902
# Cmpd pKa pKa (pH Final pKa
# [12] = Dog PK (IV and PO); type: in vivo, beagle dogs
# Text: Table 9 PK Parameters for MRTX0902 (32) across Species | column: dog
# [13] = molecular target: T7, hERG (Homo sapiens, UniProt Q12809); assay: Safetyscan Ion Channel; type: cell-based; conditions: blocker mode, read-out: RC50 (IC50) hERG Blocker
# T7 construct: purchased DiscoverX (Eurofins)
# T7 sequence (Q12809 whole entry): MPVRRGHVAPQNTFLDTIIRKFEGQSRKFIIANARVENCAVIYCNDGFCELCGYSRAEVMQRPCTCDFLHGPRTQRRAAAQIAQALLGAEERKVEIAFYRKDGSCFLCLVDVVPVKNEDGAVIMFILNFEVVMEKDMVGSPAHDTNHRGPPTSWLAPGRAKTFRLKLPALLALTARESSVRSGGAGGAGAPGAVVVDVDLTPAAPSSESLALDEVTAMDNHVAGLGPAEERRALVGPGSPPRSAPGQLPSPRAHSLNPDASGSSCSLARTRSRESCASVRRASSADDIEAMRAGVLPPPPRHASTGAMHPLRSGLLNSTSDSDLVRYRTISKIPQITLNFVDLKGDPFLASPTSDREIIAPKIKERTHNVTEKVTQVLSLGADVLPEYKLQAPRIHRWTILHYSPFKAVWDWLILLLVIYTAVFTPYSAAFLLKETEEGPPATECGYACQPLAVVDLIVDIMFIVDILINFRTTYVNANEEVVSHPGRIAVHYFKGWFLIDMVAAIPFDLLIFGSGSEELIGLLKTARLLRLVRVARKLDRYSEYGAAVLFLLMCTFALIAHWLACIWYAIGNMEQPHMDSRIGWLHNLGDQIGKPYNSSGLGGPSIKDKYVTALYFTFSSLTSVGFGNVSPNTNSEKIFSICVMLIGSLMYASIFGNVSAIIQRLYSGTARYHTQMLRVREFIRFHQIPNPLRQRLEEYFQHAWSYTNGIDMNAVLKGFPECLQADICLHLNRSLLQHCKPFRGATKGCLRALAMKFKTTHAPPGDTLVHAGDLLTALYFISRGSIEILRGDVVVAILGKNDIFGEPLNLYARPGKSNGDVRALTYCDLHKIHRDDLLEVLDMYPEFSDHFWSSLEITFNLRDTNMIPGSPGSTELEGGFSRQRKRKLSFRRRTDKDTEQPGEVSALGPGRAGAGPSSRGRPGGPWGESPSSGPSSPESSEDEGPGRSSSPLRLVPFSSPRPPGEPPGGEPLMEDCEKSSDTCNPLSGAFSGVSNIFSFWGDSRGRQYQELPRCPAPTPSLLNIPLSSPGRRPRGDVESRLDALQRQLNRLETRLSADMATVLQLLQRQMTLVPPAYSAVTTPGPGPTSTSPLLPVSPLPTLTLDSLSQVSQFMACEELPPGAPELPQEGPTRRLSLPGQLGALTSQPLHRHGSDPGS
# T5 sequence (P25021 whole entry): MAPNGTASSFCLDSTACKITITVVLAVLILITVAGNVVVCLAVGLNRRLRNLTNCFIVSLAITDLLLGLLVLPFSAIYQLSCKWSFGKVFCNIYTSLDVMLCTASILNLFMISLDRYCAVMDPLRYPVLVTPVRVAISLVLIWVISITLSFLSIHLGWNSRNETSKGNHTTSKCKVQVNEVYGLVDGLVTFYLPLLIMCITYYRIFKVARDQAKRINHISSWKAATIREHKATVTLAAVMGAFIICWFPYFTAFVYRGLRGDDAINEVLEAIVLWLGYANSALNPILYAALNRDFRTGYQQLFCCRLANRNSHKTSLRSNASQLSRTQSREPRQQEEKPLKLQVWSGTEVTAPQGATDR
# T1 sequence (P35367 whole entry): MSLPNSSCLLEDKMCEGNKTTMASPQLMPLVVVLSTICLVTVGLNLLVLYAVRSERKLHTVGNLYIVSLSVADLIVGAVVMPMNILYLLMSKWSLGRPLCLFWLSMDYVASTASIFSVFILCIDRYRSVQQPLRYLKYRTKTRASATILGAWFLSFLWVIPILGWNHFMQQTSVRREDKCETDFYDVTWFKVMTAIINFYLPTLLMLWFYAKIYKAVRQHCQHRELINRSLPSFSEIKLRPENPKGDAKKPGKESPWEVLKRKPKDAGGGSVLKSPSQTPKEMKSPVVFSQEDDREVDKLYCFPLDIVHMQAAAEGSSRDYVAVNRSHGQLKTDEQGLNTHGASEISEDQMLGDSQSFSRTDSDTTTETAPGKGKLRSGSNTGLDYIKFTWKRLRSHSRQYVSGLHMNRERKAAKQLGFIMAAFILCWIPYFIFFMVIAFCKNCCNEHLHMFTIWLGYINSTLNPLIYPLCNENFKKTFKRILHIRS
# T4 sequence (P21397 whole entry): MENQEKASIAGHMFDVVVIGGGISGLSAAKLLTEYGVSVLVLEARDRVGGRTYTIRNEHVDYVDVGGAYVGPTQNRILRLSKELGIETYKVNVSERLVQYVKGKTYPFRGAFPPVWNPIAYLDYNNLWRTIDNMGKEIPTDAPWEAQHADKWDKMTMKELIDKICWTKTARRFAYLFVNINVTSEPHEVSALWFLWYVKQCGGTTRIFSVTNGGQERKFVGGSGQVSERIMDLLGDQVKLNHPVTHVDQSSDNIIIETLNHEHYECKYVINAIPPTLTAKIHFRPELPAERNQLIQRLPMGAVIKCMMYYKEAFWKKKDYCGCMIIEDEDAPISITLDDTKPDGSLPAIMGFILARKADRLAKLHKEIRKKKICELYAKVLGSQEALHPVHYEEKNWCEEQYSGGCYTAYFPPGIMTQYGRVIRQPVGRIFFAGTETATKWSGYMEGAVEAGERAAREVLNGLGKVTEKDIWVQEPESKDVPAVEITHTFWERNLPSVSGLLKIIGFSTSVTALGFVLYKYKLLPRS
# T3 sequence (Q13464 whole entry): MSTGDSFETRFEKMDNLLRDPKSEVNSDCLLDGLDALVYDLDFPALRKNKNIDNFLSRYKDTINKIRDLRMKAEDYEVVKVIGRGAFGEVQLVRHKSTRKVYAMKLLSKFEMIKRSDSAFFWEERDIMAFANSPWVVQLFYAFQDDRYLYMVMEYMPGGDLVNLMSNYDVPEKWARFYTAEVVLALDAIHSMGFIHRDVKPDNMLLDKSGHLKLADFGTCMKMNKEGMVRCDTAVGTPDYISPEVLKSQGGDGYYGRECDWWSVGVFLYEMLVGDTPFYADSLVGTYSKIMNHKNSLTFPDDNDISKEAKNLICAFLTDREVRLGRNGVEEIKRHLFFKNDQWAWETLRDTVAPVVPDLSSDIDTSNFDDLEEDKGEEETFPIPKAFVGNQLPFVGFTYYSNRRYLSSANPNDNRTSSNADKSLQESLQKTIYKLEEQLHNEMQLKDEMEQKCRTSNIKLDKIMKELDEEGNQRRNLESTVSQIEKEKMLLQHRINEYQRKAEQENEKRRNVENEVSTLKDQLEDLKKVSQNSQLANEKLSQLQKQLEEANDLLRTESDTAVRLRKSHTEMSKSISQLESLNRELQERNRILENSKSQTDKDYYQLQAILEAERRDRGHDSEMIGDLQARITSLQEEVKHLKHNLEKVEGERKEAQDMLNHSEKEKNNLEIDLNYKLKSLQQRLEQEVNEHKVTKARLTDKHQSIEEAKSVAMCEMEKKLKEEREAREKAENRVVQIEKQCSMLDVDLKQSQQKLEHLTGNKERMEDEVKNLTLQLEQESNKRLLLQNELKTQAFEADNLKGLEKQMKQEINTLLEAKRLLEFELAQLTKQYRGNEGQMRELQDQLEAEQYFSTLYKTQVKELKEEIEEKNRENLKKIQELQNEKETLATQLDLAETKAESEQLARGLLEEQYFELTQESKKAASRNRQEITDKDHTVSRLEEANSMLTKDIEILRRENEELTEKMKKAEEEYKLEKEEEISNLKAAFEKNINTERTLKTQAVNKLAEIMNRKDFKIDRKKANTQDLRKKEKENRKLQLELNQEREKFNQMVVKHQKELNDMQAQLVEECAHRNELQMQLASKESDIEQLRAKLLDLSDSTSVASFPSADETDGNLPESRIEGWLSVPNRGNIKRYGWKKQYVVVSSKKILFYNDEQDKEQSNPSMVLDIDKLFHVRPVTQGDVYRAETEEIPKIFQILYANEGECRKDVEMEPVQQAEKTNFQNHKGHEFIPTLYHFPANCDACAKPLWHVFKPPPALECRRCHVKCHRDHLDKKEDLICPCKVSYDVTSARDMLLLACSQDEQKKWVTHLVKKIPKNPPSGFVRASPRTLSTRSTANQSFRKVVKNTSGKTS
# Chain of CYP3A4 (P08684 whole entry): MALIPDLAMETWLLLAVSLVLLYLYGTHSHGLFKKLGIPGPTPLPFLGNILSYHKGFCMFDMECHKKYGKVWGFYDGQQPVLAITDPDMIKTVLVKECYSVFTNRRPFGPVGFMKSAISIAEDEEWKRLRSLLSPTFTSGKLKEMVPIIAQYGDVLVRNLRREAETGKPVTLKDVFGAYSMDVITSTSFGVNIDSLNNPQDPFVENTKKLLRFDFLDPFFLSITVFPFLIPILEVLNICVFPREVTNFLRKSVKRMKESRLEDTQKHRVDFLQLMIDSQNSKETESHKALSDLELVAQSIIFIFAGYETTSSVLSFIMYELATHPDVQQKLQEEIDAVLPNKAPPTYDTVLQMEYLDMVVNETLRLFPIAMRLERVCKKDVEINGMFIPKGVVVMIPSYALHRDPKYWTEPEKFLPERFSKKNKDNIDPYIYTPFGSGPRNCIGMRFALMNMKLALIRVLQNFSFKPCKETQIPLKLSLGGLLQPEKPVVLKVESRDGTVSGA
# T6 sequence (P06239 whole entry): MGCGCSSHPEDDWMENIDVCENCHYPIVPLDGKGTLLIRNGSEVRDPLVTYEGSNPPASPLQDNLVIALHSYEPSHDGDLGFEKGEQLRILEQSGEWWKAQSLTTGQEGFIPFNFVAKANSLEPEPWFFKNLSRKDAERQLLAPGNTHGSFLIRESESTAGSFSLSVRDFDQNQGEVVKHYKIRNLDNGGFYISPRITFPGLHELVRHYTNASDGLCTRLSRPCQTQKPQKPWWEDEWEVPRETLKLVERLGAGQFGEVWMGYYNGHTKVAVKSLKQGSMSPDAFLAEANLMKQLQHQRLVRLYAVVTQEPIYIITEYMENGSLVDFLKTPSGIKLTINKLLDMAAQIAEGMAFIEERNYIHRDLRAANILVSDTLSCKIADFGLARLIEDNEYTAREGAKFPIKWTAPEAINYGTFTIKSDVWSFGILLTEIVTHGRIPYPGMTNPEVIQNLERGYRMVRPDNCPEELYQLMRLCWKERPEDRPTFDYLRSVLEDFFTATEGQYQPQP
compound,measurement,setting,value
"Cc1c(C#N)cccc1[C@@H](C)Nc1nnc(C)c2cnc(N3CCOCC3)cc12 [Compound 32, (R)-2-Methyl-3-(1-((4-methyl-7-morpholinopyrido[3,4-d]pyridazin-1-yl)amino)ethyl)benzonitrile]",IC50,[1],3.6 µM
same,Kp uu at 1 h,[2]; 1 h after PO 100 mg/kg single dose,1.56
same,Kp uu at 8 h,[2]; 8 h after PO 100 mg/kg single dose,1.03
same,EC50,"[3]; agonist mode, read-out: RC50 (EC50) HRH1 Agonist",> 10 µM
same,IC50,"[3]; antagonist mode, read-out: RC50 (IC50) HRH1 Antagonist",> 10 µM
same,IC50,[4],> 10 µM
same,IC50,[5],> 10 µM
same,IC50,[6],8.88 µM
same,EC50,"[7]; agonist mode, read-out: RC50 (EC50) HRH2 Agonist",> 10 µM
same,IC50,"[7]; antagonist mode, read-out: RC50 (IC50) HRH2 Antagonist",> 10 µM
same,tumor regression,[8]; MRTX0902 25 mg/k bid in combination with MRTX849 10 mg/kg qd,−54%
same,tumor regression,[8]; MRTX0902 50 mg/kg bid in combination with MRTX849 10 mg/kg qd,−92%
same,tumor-free animals,"[8]; MRTX0902 50 mg/kg bid with MRTX849 10 mg/kg qd, n = 5 animals/group",two tumor-free animals
same,tumor growth inhibition (TGI),[8]; 25 mg/kg bid PO,41%
same,tumor growth inhibition (TGI),[8]; 50 mg/kg bid PO,53%
same,Cl,[9],4.4 mL/min/kg
same,IV t1/2,[9],78 min
same,"Vd,ss",[9],0.28 L/kg
same,IC50,[10],> 10 µM
same,ionized at pH 7.4,"[11]; pH 7.4, based on measured pKa",~17%
same,pKa,"[11]; UV metric method, read-out: pKa (UV metric)",6.78
same,pKa,"[11]; pH 7.4, pKa (final pKa result)",6.7
same,pKa,"[11]; pH metric method, read-out: pKa (pH metric)",6.62
same,F,"[12]; IV/PO 2/10 mg/kg, PO suspension in 0.5% MC (4000 cps)/0.2% Tween80 in water",38%
same,clearance,"[12]; beagle, in vivo, IV 2 mg/kg",7.6 mL/min/kg
same,half-life,"[12]; beagle, in vivo, IV 2 mg/kg, read-out: IV t1/2 (converted)",51.6 min
same,Vd,"[12]; beagle, in vivo, IV 2 mg/kg, read-out: Vd,ss",0.48 L/kg
same,IC50,[13],> 10 µM
